Measured values as given in a melting point compilation (Tetko et al.; mined from patent text by program, amines drawn as free bases though some values may be those of a salt).

Row | melting point [°C] | Compound
1 | 161 to 164 | CN(CCP(O)O)c1cc(Oc2ccc(C(F)(F)F)cc2Cl)ccc1[N+](=O)[O-]
2 | 242 to 244 | O=C(O)c1cnc2cc(I)ccc2n1
3 | 61 to 63 | CNC(=O)n1nc(Oc2ncc(C(F)(F)F)cc2Cl)cc1C(F)(F)F
4 | 190 to 192 | OC(Cn1cncn1)(Cn1cncc1C(F)(F)F)c1ccc(Cl)cc1Cl (centres undefined)
5 | 150 to 152 | CS(=O)(=O)NC1CCCc2ccc([N+](=O)[O-])cc21 (centres undefined)
6 | 223 | Cn1c(C(F)(F)F)nn(-c2ccc(Cl)c(C(=O)O)c2)c1=O
7 | 228 to 230 | O=C1c2sccc2-n2cncc2[C@@H]2CCCN12
8 | 270 to 272 | O=C(O)COc1ccc(-c2coc3cc(OCC(=O)O)ccc3c2=O)cc1
9 | 123 | COc1ccc(-c2nc(Sc3cccc(OC)c3)n(C3CCCCO3)c2-c2ccc(OC)cc2)cc1 (centres undefined)
10 | 167 to 170 | NS(=O)(=O)c1cc(C(=O)c2cc3ccccc3o2)ccc1Cl
11 | 172 to 174 | CCNn1c(C)nc(N2CCc3ccccc3CC2)c(C#N)c1=O
12 | 102 to 104 | COc1ccc2c(c1)CCC1C2CCC2(C)C(NCc3ccccc3)CCC12 (centres undefined)
13 | 156 to 158 | CCc1nc(/C=C/c2cn(-c3ccccc3)nc2OCc2cc(OCc3nc(-c4ccc(CC(=O)O)cc4)oc3C)no2)cs1
14 | 203 to 205 | Cc1cc2oc(=O)c(NC(=O)Nc3cccc(C(F)(F)F)c3)c(-c3ccccc3C)c2cc1Cl
15 | 69 to 72 | COc1ccc([C@@H]2CCCC[C@H]2C#N)c(OC)c1OC (relative stereo)
16 | 79 to 80 | CC(=O)SCC(CC(=O)c1ccc(Br)cc1)C(=O)OCc1ccccc1 (centres undefined)
17 | 215 to 216 | N#CCCNC(=O)c1cccc(-c2ccc3ccn(-c4ccc(Cl)cc4Cl)c3n2)c1
18 | 315 to 317 | O=c1cc(-c2ccncc2)nc2n1Cc1ccccc1N2
19 | 179 to 180 | CC(=O)NC1CCCCc2sccc21 (centres undefined)
20 | 130 to 132 | CC1(C)CCCC2(C)C1CCC(C)(O)C2CCO (centres undefined)
21 | 140 to 141 | CC(Oc1ccc(Oc2ncc(C(F)(F)F)cc2Cl)cc1)C(=O)Nc1ccc(OC(F)(F)F)cc1 (centres undefined)
22 | 38 to 39 | NS(=O)(=O)c1ccc(-c2c(-c3ccccc3)noc2COCC(F)(F)C(F)(F)C(F)(F)CO[N+](=O)[O-])cc1

Row | melting point [°C] | Compound
23 | 170 to 172 | Fc1cccc(F)c1-c1cncn1-c1ccc(Cl)cc1
24 | 109 to 111 | CC(C)c1cccc(C(C)C)c1-n1nnn(C(C)C)c1=S
25 | 110 to 115 | Cc1cc(OCCNC(=O)C2Cc3ccccc3N2S(=O)(=O)c2ccc(-c3cc(C(F)(F)F)ccc3Cl)cc2)ccc1CC(=O)O (centres undefined)
26 | 115 to 117 | O=[N+]([O-])C1=C2N(CC3CCOC3)CCN2C2CCCC1O2 (centres undefined)
27 | 96 to 97 | COC(=O)c1ccccc1OCCCOc1cc2c(cc1O)CCO2
28 | 74 to 75 | CCCCCCCCCCCCCCCCNc1ccc(C(=O)OC)cc1
29 | 110 | CNC(=O)c1ccc(N2CCC(OC3CCN(C4CCC4)CC3)CC2)cn1
30 | 191 | O=S(=O)(Nc1ccc(Cl)nc1I)c1ccc2ncsc2c1
31 | 193 to 194 | Cn1cc(-c2c(-c3ccccc3F)nn3ccncc23)ccc1=O
32 | 133 to 135 | O=C(Oc1ccccc1)c1ccc(N(Cc2ccccc2)Cc2ccccc2)cc1Cl
33 | 85 | CCN(CC)CCOc1ccc(Nc2ncc3c(n2)N(CC)C(=O)N(c2c(Cl)cccc2Cl)C3)cc1
34 | 248 | CC12CCC(=O)C=C1CCC1C2=CCC2(C)C1CCC2(O)C(=O)CO (centres undefined)
35 | 174 to 176 | CC(=O)Nc1ccc(O[C@H]2CCN(C)C[C@H]2c2ccccc2)cc1 (relative stereo)
36 | 118 to 122 | N#CC1(c2cccs2)CC1
37 | 111 to 114 | Nc1nc(C2CC2)nc(C(Cl)(Cl)Cl)n1
38 | 65 to 75 | COC(=O)c1cc(C2OC(=O)CC(C)O2)cnc1C1=NC(C)(C(C)C)C(=O)N1 (centres undefined)
39 | 271 to 273 | CC(C)C(=O)N1C2=NCCN2C(=O)c2nc(C(C)C)[nH]c21
40 | 210 to 211 | COc1ccc(C[C@@H](NC(=O)c2ccc(F)c3ccccc23)[C@@H](O)c2ccc(F)cc2)cc1 (racemic)
41 | 251 | Nc1cc(C(=O)O)cc(S(N)(=O)=O)c1Nc1ccccc1
42 | 199 to 200 | C[C@@H]1CCC[C@H](C)N1Cc1ccc2cc(NC(=O)N3CCC(c4ccc(Cl)cc4)CC3)ccc2c1
43 | 72.5 to 73 | COC(=O)NNC(=S)CC(C)(C)C
44 | 235 to 237 | Cc1c(C#N)cc2ccc3c(c2c1Br)C(C)(C)C(=O)O3

Row | melting point [°C] | Compound
45 | 186 to 187 | CN(CC(=O)N1CCN(Cc2ccc3c(c2)OCO3)CC1)c1ccc(Oc2ccc(NS(=O)(=O)c3ccc(Cl)c(Cl)c3)cn2)c(F)c1
46 | 203 to 205 | COc1nc(C)nc(NC(=O)NS(=O)(=O)c2cccc3c2OS(=O)(=O)C(C)=C3)n1
47 | 198 to 199 | COc1ccc(C(=O)c2cccc(OCc3nc(-c4ccccc4)oc3C)c2)c(OCC(=O)O)c1
48 | 138 to 140 | CCNC(=S)NS(=O)(=O)N1CCC(CCNC(=O)c2cc(Cl)ccc2OC)CC1
49 | 86 to 92 | COCCNC(=O)c1cccc(-c2cccc3cc(Cc4cccc(C#N)c4)sc23)c1
50 | 85 to 87 | O=C(O)C(CCc1ccccc1)Oc1c(Br)cc(-c2ccc(-c3c(Cc4ccccc4)sc4ccccc34)cc2)cc1Br (centres undefined)
51 | 89 to 91 | O=C(CBr)c1cccn1S(=O)(=O)c1ccccc1
52 | 207 to 208 | CCOc1cc2c(cc1S(=O)(=O)NC(=O)NC)C(CNC(=O)c1cc(Cl)ccc1OC)CCO2 (centres undefined)
53 | 132 to 133 | Cc1c(C)n(Cc2ccccc2)c2ncnc(Nc3cccc(Cl)c3)c12
54 | 264 to 267 | COc1cc(C(=O)O)cc(OC)c1Cc1cnc(N)nc1N
55 | 110 to 115 | N#CCc1cc(Cl)nc(N)n1
56 | 180 to 181 | CN(C)Cc1cc(Oc2ccc3c(C(=O)Nc4cccc(C(F)(F)F)c4)cccc3c2)ncn1
57 | 201 to 202 | COCCc1nc2c(N)nc3cc(-c4ccccc4)ccc3c2n1CCCCNS(C)(=O)=O
58 | 151 to 152 | Cc1ccccc1CC(=NC#N)NC(NC(=O)CCCCc1ccccc1)C(C)(C)C (centres undefined)
59 | 133 | COCc1nnc2ccc(-c3ccccc3)nn12
60 | 339 to 341 | Cc1ccnc(NC(=O)c2nnc3ccccc3c2O)c1
61 | 110 to 111 | OC1=C(c2ccccc2)CC(O)(Cl)C=C1 (centres undefined)
62 | 110 to 111 | CCc1cccc(CC(=O)O)c1OCCn1cc(C(=O)NCc2ccc(C(F)(F)F)cc2)c(OC(C)C)n1
63 | 80 to 81 | Fc1cccc2c1OC1CN(Cc3ccccc3)CC1O2 (centres undefined)
64 | 154 to 155 | COCCNC(=O)c1ccnc(-c2ccc3c(c2)C(c2ccc(Cl)cc2Cl)CC3)c1 (centres undefined)

Row | Compound | melting point [°C]
65 | COC(=O)c1ccc2[nH]cc(C3=CCN(C)CC3)c2c1 | 202 to 204
66 | COCCn1cc(C(=O)C(F)(F)F)c2c(Cl)cccc21 | 57 to 59
67 | Fc1ccc(-c2cn([C@H]3CN4CCC3CC4)nn2)cc1 | 139
68 | COC(=O)c1ccc(-c2coc(-c3ccc4c(c3)C(C)(C)CCC4(C)C)c2)cc1 | 109 to 111
69 | C=CC(C)(O)C#Cc1ncn2c1CN(C)C(=O)c1c(Cl)cccc1-2 (centres undefined) | 185 to 187
